The results in this text go back to paper PMC3463757 (2012).

What is called pIC50 is the negative decadic logarithm of the IC50, by convention in mol/L. Low readings indicate a large IC50, high ones a small IC50.

pIC50: −log10 of the molar value.

The target of one assay is ROCK2 (Homo sapiens, UniProt O75116). As to the kind of experiment: Invitrogen Z-Lyte FRET kinase assay, […] peptide substrate. Format: biochemical.
For a further assay, the target named is ROCK1 (Homo sapiens, UniProt Q13464). The description is as above. Format: biochemical.
ROCK1, sequence (Q13464 2-1354): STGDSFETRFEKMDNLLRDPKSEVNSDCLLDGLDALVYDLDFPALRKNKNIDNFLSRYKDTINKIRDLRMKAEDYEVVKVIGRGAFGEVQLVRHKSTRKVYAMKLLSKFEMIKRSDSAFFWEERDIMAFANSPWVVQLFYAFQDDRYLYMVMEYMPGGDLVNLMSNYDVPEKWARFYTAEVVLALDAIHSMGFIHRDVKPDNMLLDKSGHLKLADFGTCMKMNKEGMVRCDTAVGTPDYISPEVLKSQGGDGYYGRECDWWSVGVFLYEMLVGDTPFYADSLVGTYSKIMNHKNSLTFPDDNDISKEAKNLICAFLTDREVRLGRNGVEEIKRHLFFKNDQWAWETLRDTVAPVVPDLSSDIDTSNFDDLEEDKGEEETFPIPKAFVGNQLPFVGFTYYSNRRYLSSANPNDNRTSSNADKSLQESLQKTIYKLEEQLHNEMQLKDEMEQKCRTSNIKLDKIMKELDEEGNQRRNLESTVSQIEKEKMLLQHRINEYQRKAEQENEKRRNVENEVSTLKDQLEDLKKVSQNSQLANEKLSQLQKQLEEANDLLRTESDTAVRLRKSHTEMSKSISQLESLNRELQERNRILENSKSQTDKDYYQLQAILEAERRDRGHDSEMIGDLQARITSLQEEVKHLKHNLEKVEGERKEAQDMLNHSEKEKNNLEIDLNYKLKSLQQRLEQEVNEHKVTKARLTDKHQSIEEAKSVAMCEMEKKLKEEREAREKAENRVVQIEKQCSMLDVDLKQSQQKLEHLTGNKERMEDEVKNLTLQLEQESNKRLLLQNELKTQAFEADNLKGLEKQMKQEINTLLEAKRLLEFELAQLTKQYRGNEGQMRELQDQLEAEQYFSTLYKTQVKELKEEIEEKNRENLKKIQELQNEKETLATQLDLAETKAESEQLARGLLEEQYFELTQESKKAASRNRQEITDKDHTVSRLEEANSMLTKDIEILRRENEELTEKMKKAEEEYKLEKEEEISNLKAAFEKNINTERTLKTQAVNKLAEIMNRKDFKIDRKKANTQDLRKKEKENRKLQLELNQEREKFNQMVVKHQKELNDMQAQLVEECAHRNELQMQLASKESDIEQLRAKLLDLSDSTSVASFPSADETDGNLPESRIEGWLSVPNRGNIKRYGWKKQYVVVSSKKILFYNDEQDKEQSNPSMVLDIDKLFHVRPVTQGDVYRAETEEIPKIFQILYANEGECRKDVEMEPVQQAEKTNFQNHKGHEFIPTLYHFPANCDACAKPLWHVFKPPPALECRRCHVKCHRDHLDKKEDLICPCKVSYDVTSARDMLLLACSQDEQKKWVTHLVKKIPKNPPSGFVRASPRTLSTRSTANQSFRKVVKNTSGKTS

ROCK2, sequence (O75116 whole entry): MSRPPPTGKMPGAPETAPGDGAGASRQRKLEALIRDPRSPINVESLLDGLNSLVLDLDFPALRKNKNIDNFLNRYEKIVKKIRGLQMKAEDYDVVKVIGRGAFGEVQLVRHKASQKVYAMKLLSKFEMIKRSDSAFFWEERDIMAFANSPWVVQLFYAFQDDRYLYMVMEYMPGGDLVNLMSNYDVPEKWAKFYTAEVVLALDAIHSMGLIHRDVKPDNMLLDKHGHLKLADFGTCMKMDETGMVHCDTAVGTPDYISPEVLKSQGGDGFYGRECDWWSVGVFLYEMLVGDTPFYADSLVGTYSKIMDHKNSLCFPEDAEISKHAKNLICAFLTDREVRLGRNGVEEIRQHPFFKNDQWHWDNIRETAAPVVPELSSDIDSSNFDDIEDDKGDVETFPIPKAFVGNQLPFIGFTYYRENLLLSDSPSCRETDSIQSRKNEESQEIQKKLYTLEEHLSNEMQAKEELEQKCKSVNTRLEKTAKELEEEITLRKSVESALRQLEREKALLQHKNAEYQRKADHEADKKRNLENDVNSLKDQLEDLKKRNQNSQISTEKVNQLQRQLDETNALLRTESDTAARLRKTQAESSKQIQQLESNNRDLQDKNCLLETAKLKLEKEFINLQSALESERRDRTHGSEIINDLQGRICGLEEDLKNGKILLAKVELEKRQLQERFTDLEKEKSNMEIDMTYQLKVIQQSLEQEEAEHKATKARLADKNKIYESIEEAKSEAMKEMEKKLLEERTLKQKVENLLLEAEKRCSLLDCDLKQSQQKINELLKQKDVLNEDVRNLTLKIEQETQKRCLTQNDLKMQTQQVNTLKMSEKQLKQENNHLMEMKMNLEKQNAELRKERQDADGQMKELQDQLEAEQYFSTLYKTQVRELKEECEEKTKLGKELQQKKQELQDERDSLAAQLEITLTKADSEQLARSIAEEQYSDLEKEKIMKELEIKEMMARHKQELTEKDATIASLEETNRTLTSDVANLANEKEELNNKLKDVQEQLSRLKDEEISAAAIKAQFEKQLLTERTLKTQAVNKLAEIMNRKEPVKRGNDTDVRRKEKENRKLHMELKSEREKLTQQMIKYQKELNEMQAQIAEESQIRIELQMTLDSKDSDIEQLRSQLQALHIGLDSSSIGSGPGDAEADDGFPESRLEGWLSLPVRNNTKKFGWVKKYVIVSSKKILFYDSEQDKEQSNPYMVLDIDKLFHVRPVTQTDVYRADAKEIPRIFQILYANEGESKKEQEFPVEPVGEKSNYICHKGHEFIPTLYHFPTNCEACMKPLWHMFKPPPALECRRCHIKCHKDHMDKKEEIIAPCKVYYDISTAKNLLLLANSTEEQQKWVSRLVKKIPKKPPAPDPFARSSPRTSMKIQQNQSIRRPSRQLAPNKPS

For the substance RKI-1313, the figures for the pIC50 at ROCK2 and on ROCK1 were 5.10 and 4.47, respectively.
